Test results as given in ChEMBL document CHEMBL1147116 (Antimicrob Agents Chemother, 2007).
Converted amounts (≈) assume the structure as drawn.

Key:
[1] = test system: Streptococcus pneumoniae; assay: Bactericidal activity against Streptococcus pneumoniae ATCC 49619 at fAUC/MIC of 119 after 24 to 96 hrs in pharmacodynamic model
[2] = Half life at 50 mg/24 hrs regimen in vitro PK model; type: ADME
[3] = test system: Streptococcus pneumoniae; assay: fAUC/MIC ratio of Streptococcus pneumoniae ATCC 49610 at 320 mg
[4] = test system: Streptococcus pneumoniae; assay: Bactericidal activity against Streptococcus pneumoniae BSP-2443 with parC S79Y, S52G, N91D mutation and gyrA S114G mutation at fAUC/MIC of 34 after 72 to 96 hrs in pharmacodynamic model; conditions: BSP2443
[5] = Peak free concentration at 50 mg/24 hrs regimen in vitro PK model; type: ADME
[6] = test system: Streptococcus pneumoniae; assay: Bactericidal activity against Streptococcus pneumoniae BSP-2443 at fAUC/MIC of 51.3 after 24 to 96 hrs in pharmacodynamic model; conditions: BSP2443
[7] = test system: Streptococcus pneumoniae; assay: Bactericidal activity against Streptococcus pneumoniae ATCC 49619 with parC S79Y mutation at fAUC/MIC of 37 after 96 hrs in pharmacodynamic model; conditions: ATCC 49619, 96 h
[8] = test system: Streptococcus pneumoniae; assay: Bactericidal activity against Streptococcus pneumoniae BSP-2443 at fAUC/MIC of 34 after 24 to 48 hrs in pharmacodynamic model; conditions: BSP2443
[9] = test system: Streptococcus pneumoniae; assay: fAUC/MIC ratio of Streptococcus pneumoniae ATCC 49610 at 250 mg
[10] = Half life at 75 mg/24 hrs regimen in vitro PK model; type: ADME
[11] = Half life at 150 mg/24 hrs regimen in vitro PK model; type: ADME
[12] = test system: Streptococcus pneumoniae; assay: Susceptibility of Streptococcus pneumoniae BSP-2443 by microdilution method; type: functional; conditions: BSP2443
[13] = test system: Streptococcus pneumoniae; assay: Bactericidal activity against Streptococcus pneumoniae ATCC 49619 at fAUC/MIC of 146 after 24 to 96 hrs in pharmacodynamic model
[14] = test system: Streptococcus pneumoniae; assay: Bactericidal activity against Streptococcus pneumoniae ATCC 49619 at fAUC/MIC of 65.3 after 24 to 96 hrs in pharmacodynamic model
[15] = test system: Streptococcus pneumoniae; assay: Bactericidal activity against Streptococcus pneumoniae BSP-2443 at fAUC/MIC of 60.2 after 24 to 96 hrs in pharmacodynamic model; conditions: BSP2443
[16] = test system: Streptococcus pneumoniae; assay: Bactericidal activity against Streptococcus pneumoniae ATCC 49619 with parC S79Y mutation at fAUC/MIC of 37 after 72 hrs in pharmacodynamic model; conditions: ATCC 49619, 72 h
[17] = Half life at 250 mg/24 hrs regimen in vitro PK model; type: ADME
[18] = test system: Streptococcus pneumoniae; assay: fAUC/MIC ratio of Streptococcus pneumoniae ATCC 49610 at 75 mg
[19] = test system: Streptococcus pneumoniae; assay: fAUC/MIC ratio of Streptococcus pneumoniae ATCC 49619 at 100 mg
[20] = test system: Streptococcus pneumoniae; assay: fAUC/MIC ratio of Streptococcus pneumoniae BSP-2443 at 100 mg
[21] = test system: Streptococcus pneumoniae; assay: fAUC/MIC ratio of Streptococcus pneumoniae ATCC 49619 at 150 mg
[22] = Peak free concentration at 150 mg/24 hrs regimen in vitro PK model; type: ADME
[23] = test system: Streptococcus pneumoniae; assay: Susceptibility of Streptococcus pneumoniae ATCC 49619 by microdilution method; type: functional
[24] = test system: Streptococcus pneumoniae; assay: fAUC/MIC ratio of Streptococcus pneumoniae BSP-2443 at 50 mg
[25] = test system: Streptococcus pneumoniae; assay: Bactericidal activity against Streptococcus pneumoniae ATCC 49619 at fAUC/MIC of 50.5 after 24 to 96 hrs in pharmacodynamic model
[26] = Peak free concentration at 320 mg/24 hrs regimen in vitro PK model; type: ADME
[27] = Half life at 100 mg/24 hrs regimen in vitro PK model; type: ADME
[28] = Peak free concentration at 100 mg/24 hrs regimen in vitro PK model; type: ADME
[29] = test system: Streptococcus pneumoniae; assay: fAUC/MIC ratio of Streptococcus pneumoniae ATCC 49610 at 50 mg
[30] = test system: Streptococcus pneumoniae; assay: Bactericidal activity against Streptococcus pneumoniae ATCC 49619 at fAUC/MIC of 37 after 24 to 48 hrs in pharmacodynamic model
[31] = test system: Streptococcus pneumoniae; assay: Bactericidal activity against Streptococcus pneumoniae ATCC 49619 at fAUC/MIC of 78 after 24 to 96 hrs in pharmacodynamic model
[32] = Peak free concentration at 75 mg/24 hrs regimen in vitro PK model; type: ADME
[33] = test system: Streptococcus pneumoniae; assay: fAUC/MIC ratio of Streptococcus pneumoniae BSP-2443 at 75 mg
[34] = Half life at 320 mg/24 hrs regimen in vitro PK model; type: ADME
[35] = Peak free concentration at 250 mg/24 hrs regimen in vitro PK model; type: ADME

Which MIC [1] does the source give for `CO/N=C1\CN(c2nc3c(cc2F)c(=O)c(C(=O)O)cn3C2CC2)CC1CN` (stereo not given) [GEMIFLOXACIN] here?
Its MIC is 0.03 µg/mL.

What about the half-life [2] of the same compound?
Its half-life is 7.45 h.

What about the fAUC/MIC [3] of the same compound?
The fAUC/MIC was 146.

What about the MIC [4] of the same compound?
The MIC was 0.125 µg/mL.

And the Activity [5]?
Its Activity is 0.12 µg/mL.

And the MIC [6]?
Its MIC is 0.03 µg/mL.

What about the MIC [7] of the same compound?
Its MIC is 0.25 µg/mL.

What about the MIC [8] of the same compound?
The MIC was 0.03 µg/mL.

And the fAUC/MIC [9]?
Its fAUC/MIC is 119.

What about the half-life [10] of the same compound?
Its half-life is 7.19 h.

And the half-life [11]?
Its half-life is 7.5 h.

What about the MIC [12] of the same compound?
The MIC was 0.025 µg/mL (≈ 0.0642 µM).

What about the MIC [13] of the same compound?
Its MIC is 0.03 µg/mL.

And the MIC [14]?
Its MIC is 0.03 µg/mL.

What about the MIC [15] of the same compound?
Its MIC is 0.03 µg/mL.

And the MIC [16]?
The MIC was 0.25 µg/mL.

What about the half-life [17] of the same compound?
The half-life was 7.22 h.

And the fAUC/MIC [18]?
Its fAUC/MIC is 50.5.

What about the fAUC/MIC [19] of the same compound?
Its fAUC/MIC is 65.3.

And the fAUC/MIC [20]?
Its fAUC/MIC is 69.2.

And the fAUC/MIC [21]?
Its fAUC/MIC is 78.

What about the Activity [22] of the same compound?
Its Activity is 0.31 µg/mL.

And the MIC [23]?
Its MIC is 0.025 µg/mL (≈ 0.0642 µM).

What about the fAUC/MIC [24] of the same compound?
Its fAUC/MIC is 34.

What about the MIC [25] of the same compound?
Its MIC is 0.03 µg/mL.

And the Activity [26]?
The Activity was 0.62 µg/mL.

What about the half-life [27] of the same compound?
Its half-life is 8.22 h.

And the Activity [28]?
Its Activity is 0.23 µg/mL.

And the fAUC/MIC [29]?
The fAUC/MIC was 37.

What about the MIC [30] of the same compound?
The MIC was 0.03 µg/mL.

And the MIC [31]?
The MIC was 0.03 µg/mL.

And the Activity [32]?
The Activity was 0.17 µg/mL.

And the fAUC/MIC [33]?
The fAUC/MIC was 51.3.

What about the half-life [34] of the same compound?
Its half-life is 7.58 h.

What about the Activity [35] of the same compound?
Its Activity is 0.51 µg/mL.
